Experimental data: patent US4596805A, “Substituted dioxopyridopyrimidines” (Ortho Pharmaceutical Corporation, priority 1984, dated 1986)

Columns and labels:
[1] = system: spontaneously hypertensive rats; assay: Spontaneously Hypertensive Rat Test (Test 3); assay type: in vivo; conditions: 100 mg/kg body weight, four male spontaneously hypertensive rats, indirect tail-cuff method
Procedure: Alternatively, one may evaluate the calcium antagonist activity of a test compound by measuring the displacement of nitrendipine to calcium channel antagonist receptors by the test compound according to the methods of Bolger, et al., Biochem. Biophys. Res. Comm., 104(4), 1604-1609 (1982) and Ehlert, et al., Life Sciences, 30, 2191-2202 (1982). In such a test, the amount of specifically-bound nitrendipine to rabbit heart is determined in the presence and absence of test compound. The percent nitrendipine displacement is directly related to the efficacy of the test compound as a calcium antagonist. This assay is described below as the "Nitrendipine Binding Assay". […] Circ. J., 270, 282 (1963). The general techniques for conducting such tests are disclosed in B. Vagnovsky "Automatic Blood-Pressure Measurements in Small Animals", American Laboratory, April, 1973, and "Techniques for the Measurement of Blood Pressure", Institute of Laboratory Animal Resouces NEWS, Vol. XIX (3), G 11-12, Spring, 1976. In this test a group of four male spontaneously hypertensive rats having systolic blood pressures greater than 150 mm Hg are used for each test compound. Systolic blood pressure is measured by the indirect method using a tail-cuff. The compounds are administered at a dose of 100 mg/kg body weight, and the average of the peak decrease in blood pressure is calculated for the four rats. Test results for exemplary compounds of Formula I are provided in Table I below, in which the Rabbit Potassium Depolarized Blood Vessel Test is called "Test 2", the Nitrendipine Binding Assay is called "Test 1" and the Spontaneously Hypertensive Rat test is called "Test 3".

[2] = target: calcium channel antagonist receptors (rabbit heart) (Oryctolagus cuniculus, UniProt P15381); assay: Nitrendipine Binding Assay (Test 1); design: species or system rabbit (female New Zealand white); conditions: 3H-nitrendipine (0.05-0.50 nM), rabbit heart membrane, 90 min at 4° C., pH 7.4; read-out: Test 1 (IC50): concentration required to achieve 50% displacement of specifically-bound nitrendipine
calcium channel antagonist receptors (rabbit heart), sequence (P15381 whole entry, other chains not shown): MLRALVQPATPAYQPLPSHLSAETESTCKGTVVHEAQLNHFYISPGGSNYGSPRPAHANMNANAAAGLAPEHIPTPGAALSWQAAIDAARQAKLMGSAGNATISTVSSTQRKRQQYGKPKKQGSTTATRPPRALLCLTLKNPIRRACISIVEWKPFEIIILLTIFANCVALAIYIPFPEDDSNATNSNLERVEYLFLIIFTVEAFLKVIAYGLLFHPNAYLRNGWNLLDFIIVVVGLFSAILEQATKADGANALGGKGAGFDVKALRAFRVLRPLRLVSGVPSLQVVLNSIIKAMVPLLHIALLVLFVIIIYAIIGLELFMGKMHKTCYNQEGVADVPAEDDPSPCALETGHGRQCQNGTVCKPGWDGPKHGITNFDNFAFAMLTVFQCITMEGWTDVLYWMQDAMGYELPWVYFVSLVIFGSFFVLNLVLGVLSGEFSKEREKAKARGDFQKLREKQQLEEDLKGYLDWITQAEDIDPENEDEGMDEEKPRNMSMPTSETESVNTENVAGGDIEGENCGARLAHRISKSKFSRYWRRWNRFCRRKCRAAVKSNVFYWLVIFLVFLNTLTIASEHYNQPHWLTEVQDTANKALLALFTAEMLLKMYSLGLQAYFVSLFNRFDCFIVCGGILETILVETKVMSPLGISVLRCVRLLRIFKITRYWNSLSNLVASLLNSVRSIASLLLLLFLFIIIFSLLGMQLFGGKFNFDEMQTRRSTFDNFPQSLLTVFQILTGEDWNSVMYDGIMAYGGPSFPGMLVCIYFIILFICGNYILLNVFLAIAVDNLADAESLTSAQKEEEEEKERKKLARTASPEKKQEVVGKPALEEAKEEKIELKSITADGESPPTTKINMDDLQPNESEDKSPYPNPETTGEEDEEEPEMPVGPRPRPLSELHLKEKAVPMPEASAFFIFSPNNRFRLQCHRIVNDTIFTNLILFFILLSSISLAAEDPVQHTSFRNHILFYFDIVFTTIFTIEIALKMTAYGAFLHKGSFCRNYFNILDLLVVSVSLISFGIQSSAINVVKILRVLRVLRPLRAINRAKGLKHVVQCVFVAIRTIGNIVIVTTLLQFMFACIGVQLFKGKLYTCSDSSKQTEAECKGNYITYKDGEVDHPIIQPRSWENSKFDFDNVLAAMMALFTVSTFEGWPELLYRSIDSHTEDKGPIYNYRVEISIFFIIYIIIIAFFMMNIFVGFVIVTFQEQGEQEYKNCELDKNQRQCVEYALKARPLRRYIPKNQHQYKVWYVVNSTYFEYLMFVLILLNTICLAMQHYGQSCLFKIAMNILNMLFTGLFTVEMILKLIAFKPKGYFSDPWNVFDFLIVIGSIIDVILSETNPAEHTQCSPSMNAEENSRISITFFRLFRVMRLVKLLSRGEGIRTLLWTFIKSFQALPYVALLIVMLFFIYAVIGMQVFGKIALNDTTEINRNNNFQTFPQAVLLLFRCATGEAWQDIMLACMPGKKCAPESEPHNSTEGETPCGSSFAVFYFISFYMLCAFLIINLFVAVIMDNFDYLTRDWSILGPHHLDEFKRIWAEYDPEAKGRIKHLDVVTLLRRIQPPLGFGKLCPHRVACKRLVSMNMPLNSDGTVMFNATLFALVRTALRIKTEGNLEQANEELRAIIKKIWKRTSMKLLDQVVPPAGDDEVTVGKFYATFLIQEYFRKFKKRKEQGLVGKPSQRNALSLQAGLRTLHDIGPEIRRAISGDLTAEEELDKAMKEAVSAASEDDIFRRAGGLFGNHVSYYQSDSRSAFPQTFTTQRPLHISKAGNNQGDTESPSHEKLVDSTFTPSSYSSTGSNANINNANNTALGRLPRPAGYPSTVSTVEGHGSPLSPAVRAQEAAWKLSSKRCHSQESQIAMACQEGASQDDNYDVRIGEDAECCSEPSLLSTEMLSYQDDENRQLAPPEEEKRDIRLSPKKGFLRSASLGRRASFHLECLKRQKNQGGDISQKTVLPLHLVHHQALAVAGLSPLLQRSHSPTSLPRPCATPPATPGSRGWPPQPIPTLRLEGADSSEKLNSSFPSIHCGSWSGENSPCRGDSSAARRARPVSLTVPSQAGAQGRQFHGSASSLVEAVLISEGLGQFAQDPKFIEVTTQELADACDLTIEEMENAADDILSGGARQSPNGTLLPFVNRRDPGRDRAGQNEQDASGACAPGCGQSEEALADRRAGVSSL
calcium channel antagonist receptors (rabbit heart), sequence (P13806 27-960 partner limits assumed, other chains not shown): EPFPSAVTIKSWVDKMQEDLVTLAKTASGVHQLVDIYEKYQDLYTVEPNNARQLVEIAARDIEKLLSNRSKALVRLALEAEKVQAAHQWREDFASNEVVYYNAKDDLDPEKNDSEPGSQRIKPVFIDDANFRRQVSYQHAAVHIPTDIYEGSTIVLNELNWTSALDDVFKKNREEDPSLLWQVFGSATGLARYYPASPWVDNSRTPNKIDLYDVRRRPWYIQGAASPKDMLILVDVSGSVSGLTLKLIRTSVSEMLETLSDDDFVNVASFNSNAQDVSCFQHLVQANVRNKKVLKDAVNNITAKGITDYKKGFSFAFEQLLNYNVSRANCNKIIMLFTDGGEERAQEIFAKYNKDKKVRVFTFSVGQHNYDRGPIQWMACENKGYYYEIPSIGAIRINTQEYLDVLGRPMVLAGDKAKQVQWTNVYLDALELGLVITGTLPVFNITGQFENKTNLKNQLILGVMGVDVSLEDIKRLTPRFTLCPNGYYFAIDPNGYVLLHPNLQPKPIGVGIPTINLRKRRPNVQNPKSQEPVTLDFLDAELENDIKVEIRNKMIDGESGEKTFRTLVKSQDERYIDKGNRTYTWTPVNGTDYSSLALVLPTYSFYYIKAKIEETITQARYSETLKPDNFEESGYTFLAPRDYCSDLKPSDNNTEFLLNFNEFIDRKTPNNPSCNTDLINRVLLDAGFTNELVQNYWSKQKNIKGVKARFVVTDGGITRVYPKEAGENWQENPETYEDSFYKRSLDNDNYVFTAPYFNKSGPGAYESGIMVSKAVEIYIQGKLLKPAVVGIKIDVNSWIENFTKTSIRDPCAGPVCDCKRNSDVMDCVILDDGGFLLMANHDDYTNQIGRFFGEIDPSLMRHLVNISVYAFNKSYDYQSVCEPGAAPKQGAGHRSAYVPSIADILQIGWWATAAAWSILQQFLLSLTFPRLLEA
calcium channel antagonist receptors (rabbit heart), sequence (P13806 961-1106 partner limits assumed, other chains not shown): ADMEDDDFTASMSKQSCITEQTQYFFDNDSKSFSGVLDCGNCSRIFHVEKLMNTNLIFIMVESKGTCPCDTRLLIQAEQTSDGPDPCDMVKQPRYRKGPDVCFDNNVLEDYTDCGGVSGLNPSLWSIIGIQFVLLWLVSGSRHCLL

[3] = system: vascular smooth muscle tissue from the rabbit aorta; assay: Rabbit Potassium Depolarized Blood Vessel Test (Test 2); assay type: cell-based; conditions: Oryctolagus cuniculus, 10 min; test compound 10^-6 M, 10 minute exposure, 30 mM potassium chloride, rabbit aorta strips, 37° C.; read-out: Test 2 (% Inhibition) of potassium-induced contraction
Text: This tissue can be made to contract when exposed to a depolarizing solution containing an elevated potassium ion concentration and normal amounts of calcium ions. A test compound added to the solution produces a dose-dependent relaxation of the contracted rabbit aortic tissue which gives an indication of calcium antagonist activity of the test compound. This test is described below as the "Rabbit Potassium Depolarized Blood Vessel Test".
In the Rabbit Potassium Depolarized Blood Vessel Test, rabbits are killed by cervical dislocation, and the thoracic aorta is removed. Helical strips, approximately 30-40 mm in length, are cut from the aorta and are suspended in tissue baths of oxygenated Krebs bicarbonate buffer at 37° C. under a resting tension of 4 g. After an equilibration period of approximately 1-2 hours, the strips are challenged with a 30 mM potassium chloride solution and the peak contraction is measured. Following measurement of the peak contraction, the strips are washed and re-equilibrated for an hour in oxygenated Krebs bicarbonate buffer. After the re-equilibration of the aorta strips, the test compound was added to the bath at a concentration of 10-^6 M and the strips were allowed to stand for 10 minutes. After the 10 minute exposure to the test compound, the tissue strips were rechallenged with 30 mM potassium chloride solution and the maximum contraction was measured. The specificity of any inhibition of contraction is determined by addition of 10 mM phenylephrine.
The percent inhibition of contraction is calculated from the formula: […]
where CT is the peak contraction in the presence of the test compound and Cc is the peak contraction without test compound.
Test results for exemplary compounds of Formula I are provided in Table I below, in which the Rabbit Potassium Depolarized Blood Vessel Test is called "Test 2", the Nitrendipine Binding Assay is called "Test 1" and the Spontaneously Hypertensive Rat test is called "Test 3".

| SMILES | IC50 [2] | Test 3 (mmHg, 100 mpk): average of the peak decrease in systolic blood pressure [1] | inhibition at 1 µM [3] |
| --- | --- | --- | --- |
| CC1=C(C(=O)OCCN(C)Cc2ccccc2)C(c2ccco2)c2c(n(C)c(=O)n(C)c2=O)N1.Cl.O (single isomer, unassigned) [Example III, 2-(N-Benzyl-N-methylamino)ethyl 5-(Furan-2-yl)-5,8-dihydro-1,3,7-trimethyl-2,4-dioxopyrido[2,3-d]pyrimidine-6-carboxylate Monohydrochloride Monohydrate] | 6 µM | -22 mmHg | – |
| CC1=C(C(=O)OCCN(C)Cc2ccccc2)C(c2ccco2)c2c(n(C)c(=O)n(C)c2=O)N1 (single isomer, unassigned) [Example XVI, 2-(N-benzyl-N-methylamino)ethyl-5-(furan-2-yl)-5,8-dihydro-1,3,7-trimethyl-2,4-dioxopyrido [2,3-d]pyrimidine-6-carboxylate] | 2 µM | – | – |
| COC(=O)C1=C(C)Nc2c(c(=O)n(C)c(=O)n2C)C1c1cccc([N+](=O)[O-])c1 (stereo not shown) [Example I, Methyl 5,8-Dihydro-1,3,7-trimethyl-5-(3-nitrophenyl)-2,4-dioxopyrido[2,3-d]pyrimidine-6-carboxylate] | 0.3 µM | -11 mmHg | 54% |
| COC(=O)C1=C(C)Nc2c(c(=O)n(C)c(=O)n2C)C1c1cccc(Cl)c1 (stereo not shown) [Example II, Methyl 5-(3-Chlorophenyl)-5,8-dihydro-1,3,7-trimethyl-2,4-dioxopyrido[2,3-d]pyrimidine-6-carboxylate] | 1 µM | -31 mmHg | 3% |
| COC(=O)C1=C(C)Nc2c(c(=O)n(C)c(=O)n2C)C1c1ccco1 (stereo not shown) [Example XV] | 100 µM | -22 mmHg | – |
| CC1=C(C(=O)OCCN(C)Cc2ccccc2)C(c2cccc(C)c2)c2c(n(C)c(=O)n(C)c2=O)N1 (stereo not shown) [Example X] | 3.2 µM | -12 mmHg | 16% |
| CC1=C(C(=O)OCCN(C)Cc2ccccc2)C(c2cccc([N+](=O)[O-])c2)c2c(n(C)c(=O)n(C)c2=O)N1 (stereo not shown) [IV] | 0.23 µM | -28 mmHg | 44% |
| COc1cccc(C2C(C(=O)OCCN(C)Cc3ccccc3)=C(C)Nc3c2c(=O)n(C)c(=O)n3C)c1 (stereo not shown) [IX] | 2.8 µM | -57 mmHg | 8% |
| CC1=C(C(=O)OCCN(C)Cc2ccccc2)C(c2cccc(Cl)c2)c2c(n(C)c(=O)n(C)c2=O)N1 (stereo not shown) [VI, 2-(N-benzyl-N-methylaminoethyl) 5-(3-chlorophenyl)-5,8-dihydro-1,3,7-trimethyl-2,4-dioxopyrido[2,3-d]pyrimidine-6-carboxylate] | 0.1 µM | -50 mmHg | 52% |
| CC1=C(C(=O)OCCN(C)Cc2ccccc2)C(c2cccc(F)c2)c2c(n(C)c(=O)n(C)c2=O)N1 (stereo not shown) [VIII] | 0.5 µM | -47 mmHg | 48% |
| CC1=C(C(=O)OCCN(C)Cc2ccccc2)C(c2cccc(Cl)c2)c2c([nH]c(=O)[nH]c2=O)N1 (stereo not shown) [VII] | 8 µM | – | – |
| CC1=C(C(=O)OCCN(C)Cc2ccccc2)C(c2cccc(C#N)c2)c2c(n(C)c(=O)n(C)c2=O)N1 (stereo not shown) [V] | 0.65 µM | -31 mmHg | 26% |
| CC1=C(C(=O)OCCN(C)Cc2ccccc2)C(c2ccccc2[N+](=O)[O-])c2c(n(C)c(=O)n(C)c2=O)N1 (stereo not shown) [XIII] | – | -35 mmHg | – |
| CC1=C(C(=O)OCCN(C)Cc2ccccc2)C(c2ccccc2[N+](=O)[O-])c2c(n(C)c(=O)n(C)c2=O)N1 (stereo not shown) [XII] | 2.5 µM | -16 mmHg | 27% |
| CC1=C(C(=O)OCCN(C)Cc2ccccc2)C(c2ccccc2Cl)c2c(n(C)c(=O)n(C)c2=O)N1 (stereo not shown) [XIV] | 1 µM | -40 mmHg | 50% |
| CC1=C(C(=O)OCCN(C)Cc2ccccc2)C(c2cc(Cl)cc(Cl)c2)c2c(n(C)c(=O)n(C)c2=O)N1 (stereo not shown) [XIX] | 2.3 µM | -37 mmHg | 28% |
| CC1=C(C(=O)OCCN(C)Cc2ccccc2)C(c2ccccc2)c2c(n(C)c(=O)n(C)c2=O)N1 (stereo not shown) [XI] | 1.3 µM | -28 mmHg | 12% |
| CC1=C(C(=O)OCCN(C)Cc2ccccc2)C(c2cccc(C(F)(F)F)c2)c2c(n(C)c(=O)n(C)c2=O)N1 (stereo not shown) [XVIII] | 3.4 µM | -37 mmHg | 33% |
| CC1=C(C(=O)OCCN(C)Cc2ccccc2)C(C2CCCCC2)c2c(n(C)c(=O)n(C)c2=O)N1 (stereo not shown) [XVII] | 2 µM | -30 mmHg | 18% |
| CC1=C(C(=O)OCCBr)C(c2cccc(Cl)c2)c2c(n(C)c(=O)n(C)c2=O)N1 (stereo not shown) [XXIII] | 0.078 µM | -16 mmHg | 54% |

Continued, in another order:

| IC50 [2] | SMILES | Test 3 (mmHg, 100 mpk): average of the peak decrease in systolic blood pressure [1] | inhibition at 1 µM [3] |
| --- | --- | --- | --- |
| 7.7 µM | CC1=C(C(=O)OCCN(C)Cc2ccccc2)C(c2cccc([N+](=O)[O-])c2)c2c([nH]c(=O)[nH]c2=O)N1 (stereo not shown) [XXII] | -11 mmHg | – |
| 0.109 µM | CC1=C(C(=O)OCCBr)C(c2cccc([N+](=O)[O-])c2)c2c(n(C)c(=O)n(C)c2=O)N1 (stereo not shown) [XXIV] | -10 mmHg | 26% |
| 0.385 µM | CC1=C(C(=O)OCCCBr)C(c2cccc(Cl)c2)c2c(n(C)c(=O)n(C)c2=O)N1 (stereo not shown) [XXIX] | – | 44% |
| 2.3 µM | CC1=C(C(=O)OCCN(C)Cc2ccccc2)C(c2ccc(C(F)(F)F)cc2)c2c(n(C)c(=O)n(C)c2=O)N1 (stereo not shown) [XXI] | -16 mmHg | 6% |
| 0.175 µM | CC1=C(C(=O)OCCBr)C(c2ccccc2Cl)c2c(n(C)c(=O)n(C)c2=O)N1 (stereo not shown) [XXVIII] | – | 23% |
| 0.86 µM | CC1=C(C(=O)OCC(F)(F)F)C(c2cccc(Cl)c2)c2c(n(C)c(=O)n(C)c2=O)N1 (stereo not shown) [XXVII] | – | – |
| 0.89 µM | CC1=C(C(=O)OCCF)C(c2cccc(Cl)c2)c2c(n(C)c(=O)n(C)c2=O)N1 (stereo not shown) [XXVI] | – | – |
| 1.1 µM | CC1=C(C(=O)OCCBr)C(c2cccc(C(F)(F)F)c2)c2c(n(C)c(=O)n(C)c2=O)N1 (stereo not shown) [XXV] | – | 41% |
| > 1 µM | CC1=C(C(=O)OCCN(C)Cc2ccccc2)C(c2cccc(Cl)c2)c2c([nH]c(=S)[nH]c2=O)N1 (stereo not shown) [XX] | -16 mmHg | – |
